Source: US20200247855A1, “THERAPY AND DIAGNOSTICS” (OXFORD UNIVERSITY INNOVATION LIMITED, priority 2017, published 2020)
No end group written: not given here.

How the values were obtained:
CCL8_HUMAN = target: T1, CCL8_HUMAN (Homo sapiens, UniProt P80075); assay: Neutralisation of chemokine induced THP-1 cell migration; type: cell-based
T1 sequence (P80075 24-99): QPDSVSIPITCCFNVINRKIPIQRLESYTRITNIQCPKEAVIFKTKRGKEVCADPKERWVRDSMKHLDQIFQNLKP
Method: Table 1. Tick CKBPs described in PCT/GB2017/050563 and [17]. Tick peptide sequences isolated in yeast surface display fluorescent-activated cell sorting (FACS) screens using a labelled chemokine. Identity with Evasin-1, 4 or 3 was calculated using BLAST. Abbreviations: IXORI—Ixodes ricinus, RHISA—Rhipicephalus sanguineus, AMBMA—Amblyomma maculatum, AMBPA—Amblyomma parvum, AMBTR—Amblyomma triste, AMBAM—Amblyomma americanum, AMBCA—Amblyomma cajennense, RHIPU—Rhipicephalus pulchellus. Table 2A-C. Binding characteristics of tick CKBPs previously disclosed (PCT/GB2017/050563 and [17]). All members of the human chemokine family[164] are listed in column 1. Binding to human chemokines was determined for 14 tick CKBPs using biolayer interferometry (BLI) with calculated Kd shown as Molar (Moles/Litre). Binding data for 17 other novel tick CKBPs was assayed using yeast surface display[17,166],with positive binding results shown as “YES”. For biolayer interferometry, His-tagged purified tick CKBP was bound to a Ni-NINTA sensor on an OctetRed® 384 system, and then binding to each chemokine listed (with the exception of CCL25, CCL26, CXCL16, CXCL17, CXCL4L1, XCL2) was assayed in a cross-binding screen at a chemokine concentration of 300 nM as described. For those chemokines showing binding to a tick CKBP in the cross-binding screen, binding assays were repeated using different doses of chemokine. Association, equilibrium and dissociation data were analysed using Octet software to create corresponding fitted curves, and used to calculate Kd. For yeast surface display, (YSD) background fluorescence was controlled for by using either an empty vector or by omitting the chemokine (i.e. using streptavidin-Alexa647 alone). An arbitrary threshold of >3 fold over background mean fluorescence intensity was chosen to describe confirmed re-tests. Where binding was detected data are indicated as “YES”. […] For yeast surface display data, empty cells represent chemokines that were not tested. Binding data published in relation to previously described tick CKBPs (Evasins-1, 4 and 3) is also shown for comparison in each of FIGS. 2A-C, with the relevant data obtained from publications: [20-22,32]. Table 3: Neutralisation of human chemokines by tick CKBPs previously disclosed (PCT/GB2017/050563 and [17]). Neutralising activity was determined using a quantitative THP1 cell migration assay in a 96-well Boyden chamber with chemokine in the bottom chamber as described. Cells migrating through to the bottom chamber at 4 hours were counted using flow cytometry in a 96 well plate format. IC50 for neutralisation was determined at the chemokine EC80 dose as determined using a range of tick CKBP concentrations. Data was analysed using GraphPad Prism to determine IC50, which is shown as Molar (Moles/Litre). Empty cells represent experiments not done. Table 4—Other previously described tick CKBPs. Tick CKBPs that were also described in PCT/GB2017/050563 and Singh et al. are indicated in “Notes”. Table 5.—Novel tick CKBPs of the invention. Table 6. […] The peptide sequence prefix indicates the identity, and suffix indicate the tick species as follows: AMBCA, Amblyomma cajennense and IXORI, Ixodes ricinus. […] Individual yeast clones recovered from the library were re-tested using a FACS (fluorescence activated cell sorting), experiment. The binding of the peptide to the chemokine was assayed by measuring the percent (%), of yeast cells expressing the given peptide that exceeded a background threshold set by measuring the fluorescence of the yeast library pool treated with streptavidin-[…] alone. When more than one independent yeast clone was isolated for a given peptide-chemokine combination, the mean percent shift was calculated and reported in column 3.

human CCL8-647 = target: T2, human CCL8-647 (Homo sapiens, UniProt P80075); assay: Fluorescent chemokine binding to THP-1 cells (flow cytometry); type: cell-based; conditions: FIG. 16 A, B
T2 construct: purchased Almac (UK)
T2 sequence (P80075 24-99): T1 sequence (P80075 24-99)
Method: P672_PEP_SCRAM (C-terminally amidated)=[…] FIG. 16(A). […] 60 μM (+) P672_PEP or P672_PEP_SCRAM were incubated with CCL8-647 (2.5 nM) for half an hour at 37° C. prior to adding to THP-1 cells and incubating everything together for a further half an hour at 37° C. Cells were then analysed using fluorescence assisted cell sorting (10,000 cells analysed) and MFI recorded. Experiment carried out in triplicate where each data point is the average of one experiment carried out in technical triplicate. Mean with SEM shown and statistical significance was determined using one-way ANOVA with Sidak's correction for multiple comparisons using Graph Pad Prism 6. ****=P<0.00005, ns=not significant.
Data are shown as mean of two technical replicates. […] Curves were fitted with 4 parameters to estimate IC50.
Fluorescent chemokine (conjugated to AlexaFluor-647) binding to THP-1 cells results in an increase in the cellular fluorescence intensity, which is quantitatively measured using flow cytometry.
Fluorescent Chemokine/Receptor Blocking Assay CCL8-647 (2.5 nM, final) or […] (1.2 nM, final) was incubated for 30 minutes with varying doses of peptide (0-100 μM, final concentration) in 50 μL assay buffer (RPMI-1640+L-glutamine (4 mM)+10% heat treated fetal bovine serum+0.2% DMSO) at 37° C. […]

In the case of EDEDYEDFFKPVTAYF-NH2 [BK1.1], the IC50 (CCL8_HUMAN) is reported as 510 nM and the “Inhibition of CCL8-647 binding to THP-1 cells” value (human CCL8-647) is reported as “could inhibit CCL8-647 binding to THP-1 cells”.
